The target of data set [1] is T1, soybean 15-lipoxygenase (SLO; L1; Type I-B; EC 1,13,11,12) (Glycine max, UniProt P08170).
T1 construct: purchased Sigma Co
T1 sequence (P08170 1-839): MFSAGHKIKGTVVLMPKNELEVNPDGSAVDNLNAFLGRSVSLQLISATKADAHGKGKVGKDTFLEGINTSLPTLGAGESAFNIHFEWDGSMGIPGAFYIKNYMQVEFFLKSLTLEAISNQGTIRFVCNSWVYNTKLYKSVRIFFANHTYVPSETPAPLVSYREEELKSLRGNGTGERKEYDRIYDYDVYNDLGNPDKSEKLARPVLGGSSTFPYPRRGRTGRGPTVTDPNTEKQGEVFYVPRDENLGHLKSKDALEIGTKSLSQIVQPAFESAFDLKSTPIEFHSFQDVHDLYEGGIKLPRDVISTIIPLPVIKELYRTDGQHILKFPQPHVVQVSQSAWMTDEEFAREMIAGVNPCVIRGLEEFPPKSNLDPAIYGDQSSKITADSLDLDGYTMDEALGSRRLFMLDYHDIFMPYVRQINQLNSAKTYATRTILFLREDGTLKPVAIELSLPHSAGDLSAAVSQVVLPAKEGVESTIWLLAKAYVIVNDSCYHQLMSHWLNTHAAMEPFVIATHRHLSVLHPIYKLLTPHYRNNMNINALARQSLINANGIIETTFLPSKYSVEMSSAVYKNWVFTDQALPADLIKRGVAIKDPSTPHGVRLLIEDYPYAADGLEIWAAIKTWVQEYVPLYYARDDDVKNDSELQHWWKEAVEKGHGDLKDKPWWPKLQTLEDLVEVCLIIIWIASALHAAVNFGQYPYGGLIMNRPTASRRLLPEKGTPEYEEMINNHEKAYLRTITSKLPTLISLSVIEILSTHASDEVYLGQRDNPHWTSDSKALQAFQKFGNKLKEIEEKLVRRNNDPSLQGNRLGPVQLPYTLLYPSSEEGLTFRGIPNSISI
As to the kind of experiment: SLO enzyme inhibition, peroxide-formation method (substrate linoleic acid). Type of data set: biochemical. The method, then:
LA, enzyme and two assay solutions (A and B) were firstly prepared as follow:
LA solution: A mixture of LA (5.6 mg), ethanol (0.5 ml) and KOH (100 mM) to a final volume of 5 ml (6).
The enzyme solution was prepared by dissolving 1 mg lyophilized SLO (L1; Type I-B; EC 1, 13, 11, 12; Sigma Co.) in 5 ml phosphate buffer (50 mM, pH 7.0) and then its activity was checked by diene formation method at 234 nm. Finally, its activity was decreased to desired quantity by dilution with the phosphate buffer.
Solution A: DMAB (3-dimethylaminobenzoic acid) 50 mM in phosphate buffer (100 mM, pH 7.0).
Solution B: A mixture of MBTH (3-methyl-2-benzothiazolonhydrazone) (10 mM, 3 ml) and hemoglobin (5 mg/ml, 3 ml) in 25 ml phosphate buffer (50 mM, pH 5.0).
Assay procedure: the sample solution in dimethyl sulfoxide (25 µl), enzyme solution (4000 units/ml; 25 µl), and phosphate buffer (pH 7.0, 50 mM; 900 µl) were mixed in a test plate and pre-incubated for 5 min at room temperature. Control test was done using the same volume of dimethyl sulfoxide. After pre-incubation, LA solution (50 µl) was added (starting of the peroxidation reaction) and 10 min later, solution A (270 µl) and subsequently solution B (130 µl) were added to start the color formation. 3 min later, 200 µl of sodium dodecyl sulfate solution (2% W/V) was added to terminate the reaction. The absorbance was recorded at 598 nm. Each experiment was performed in triplicate. The data analysis was done in GraphPad Prism 6.0 ([6]).
Lipoxygenase inhibitory activity of the synthetic compounds (substrate: linoleic acid) was assessed by using the peroxide-formation method, according to the published literature ([14], [15]). In this method, measurement of linoleate hydroperoxide concentration is the basis of lipoxygenase activity determination. All the assessments were performed in comparison with 4-MMPB (4-methyl-2-(4-methylpiperazinyl)pyrimido[4,5-b]benzothiazine) as a well-known lipoxygenase inhibitor.

For data set [2], the target named is T2, soybean 15-lipoxygenase (SLO) (Glycine max, UniProt P08170).
T2 construct: purchased Sigma Co
T2 sequence (P08170 1-839): T1 sequence (P08170 1-839)
As to the kind of experiment: Inhibitory mechanism of SLO inhibition (Michaelis-Menten / Lineweaver-Burk). Conditions: Tris buffer pH 7.2; LA 6.25-100 µM; inhibitor 125, 100 and 75 µM; Lineweaver-Burk plot. It is filed as biochemical. Here is the method: The experiment was done in Tris buffer (pH 7.2, 50 mM). Five concentrations of LA (6.25, 12.5, 25, 50 and 100 µM) were used. The enzyme activity was measured in the absence (control test) and presence of 6f as inhibitor (concentrations 125, 100, and 75 µM).
25 µl of the enzyme solution (4000 unit/ml) was added to mixture of buffer (900 µl) and inhibitor (25 µl) and incubated for 10 min at room temperature. Subsequently, 50 µl of LA solution was added to the mixture to start the reaction. After 10 min, solution A (270 µl) and then solution B (130 µl) were added to start color formation (preparation of solution A and B described in the previous section). 3 min later, 200 µl of a 2% SDS solution was added to terminate the reaction. The absorbance was recorded at 598 nm compared with the control. These experiments were performed in triplicate. Using the reaction rates (Abs.min^-1), both inhibitor and LA concentrations (µM), Michaelis-Menten and Lineweaver-Burk plots were graphed in GraphPad Prism 6.0.
So molecular docking by AutoDockTools could be responsible for finding the probable binding conformation of the inhibitors in active site pocket of SLO.

For data set [3], the target named is T1, soybean 15-lipoxygenase (SLO; L1; Type I-B; EC 1,13,11,12). Conditions: cited from earlier work.
The mark [4] stands for this setting: substrate linoleic acid, phosphate buffer pH 7.0, absorbance 598 nm, triplicate, read-out: IC50 (SLO inhibition).

Molecules are shown by their SMILES. “Also recorded” adds a separate entry of the source. Read-outs that look alike come from different tables or passages of the source. Where only a bound is given, the exact number is not on record here.

In general, melting point refers to the temperature of the solid-liquid transition. By IC50 is commonly meant the concentration at which inhibition is half-maximal.

`C=CCc1cc(NC(=O)C2CC2)ccc1OC(C)C` [Compound 6a, N-(3-allyl-4-isopropoxyphenyl) cyclopropane carboxamide] gave a melting point of 78 to 79 °C. Moreover, the IC50 in data set [1] (setting [4]) is 45.5 ± 8.1 µM.
On the same counts, the results for `C=CCc1cc(NC(=O)C2CCC2)ccc1OC(C)C` [Compound 6b, N-(3-allyl-4-isopropoxyphenyl) cyclobutane carboxamide] are 81 to 83 °C and 25.2 ± 2.1 µM.
Taken in the same sequence, the figures for `C=CCc1cc(NC(=O)C2CCCC2)ccc1OC(C)C` [Compound 6c, N-(3-allyl-4-isopropoxyphenyl) cyclopentane carboxamide] were 88 to 89 °C and 9.27 ± 1.9 µM.
Taken in the same sequence, the figures for `C=CCc1cc(NC(=O)C2CCCCC2)ccc1OC(C)C` [Compound 6d, N-(3-allyl-4-isopropoxyphenyl) cyclohexane carboxamide] were 93 to 95 °C and 3.56 ± 0.21 µM.
`C=CCc1cc(NC(=O)c2ccccc2)ccc1OC(C)C` [Compound 6e, N-(3-allyl-4-isopropoxyphenyl) benzamide] yielded a melting point of 128 to 130 °C. Also, the “SLO inhibition, result in words” value in data set [1] (substrate linoleic acid) was “no effect; also recorded: did not show any activity”. For the same compound, the IC50 in data set [1] (setting [4]) is over 100 µM.
As for `C=CCc1cc(NC(=O)C23CC4CC(CC(C4)C2)C3)ccc1OC(C)C` [Compound 6f, N-(3-allyl-4-isopropoxyphenyl) adamantane carboxamide], the “Inhibitory mechanism on SLO” value in data set [2] was “competitive mechanism”. For the same compound, the IC50 in data set [1] is 1.35 ± 0.08 µM.
Turning to `C=CCOc1ccc(NC(=O)C23CC4CC(CC(C4)C2)C3)cc1CC=C` [Compound A1, N-(3-allyl-4-(allyloxy)phenyl) adamantanecarboxamide], in data set [3] (previous work on N-(3-allyl-4-(allyloxy)phenyl) carboxamides, read-out: IC50 (lipoxygenase inhibition) of A1), the IC50 is 9.8 ± 1.2 µM.
For the compound `C=CCc1cc(OC)ccc1OC(C)C` [Compound A2, 2-allyl-1-isopropoxy-4-methoxybenzene], in data set [3] (previous work on 2-alkoxy-5-methoxyallylbenzenes, read-out: IC50 (lipoxygenase inhibition) of A2), the half-maximal inhibitory concentration (IC50) is 5.9 ± 0.6 µM.

The record behind these values is PMC7478253, “Design, synthesis, and SAR study of isopropoxy allylbenzene derivatives as 15-lipoxygenase inhibitors” (Iranian Journal of Basic Medical Sciences, 2020).
